What is called inhibition is the drop in the measured response relative to a control, in per cent.

Assay [1] concerns the target H5N1 NA (A/Anhui/1/2005) (Influenza A virus (A/Anhui/1/2005(H5N1)), UniProt A0A0C5AGB3). The experiment in a line: biochemical. The following applies: read-out: % Inhibition ± SE H5N1 NA.
For assay [2], the target named is H1N1 NA (A/California/04/2009) (Influenza A virus (A/California/04/2009(H1N1)), UniProt C3W5S3). The experiment in a line: biochemical. The following applies: read-out: % Inhibition ± SE H1N1 NA.

As for `CC(C)Oc1ccc(C(=O)/C=C/c2ccc(F)cc2)cc1` [Compound 1b], the values for the inhibition at 100 µg/mL in assay [1] and in assay [2] were 0% and 5 ± 8%, respectively.

As to `O=C(/C=C/c1ccc([N+](=O)[O-])cc1)c1ccc(O)cc1` [Compound 2a], the inhibition at 100 µg/mL in assay [1] was determined as 21 ± 2%; in assay [2] it was 16 ± 2%.

In the case of `O=C(O)c1ccc(/C=C/C(=O)c2ccc(O)cc2)cc1` [Compound 3a], the inhibition at 100 µg/mL came to 27% in assay [1] and 19 ± 2% in assay [2].

Consider `O=C(/C=C/c1ccc(F)cc1)c1ccc(OCc2ccccc2)cc1` [Compound 3b], for which the inhibition at 100 µg/mL in assay [1] was 18 ± 3%; in assay [2] it was 2 ± 4%.

Consider `O=C(/C=C/c1ccc(F)cc1)c1ccc(O)cc1` [Compound 1a], for which the values for the inhibition at 100 µg/mL in assay [1] and in assay [2] were 23 ± 11% and 21 ± 7%, respectively.

As to `COc1cc(C=O)ccc1O` [Vanillin, reference compound], the inhibition at 100 µg/mL in assay [1] is 84 ± 4%; in assay [2] it was 86 ± 2%.

`COc1cc(C(=O)/C=C/c2ccc(OCc3ccccc3)c(OC)c2)ccc1O` [Compound 2c]: in assay [2], the inhibition at 100 µg/mL turned out to be 1 ± 4%.

As to `COc1cc(/C=C/C(=O)c2ccc(O)cc2)ccc1OCc1ccccc1` [Compound 3c], the inhibition at 100 µg/mL in assay [1] worked out at 7 ± 8%; in assay [2] it was 2 ± 4%.

In the case of `O=C(/C=C/c1ccc([N+](=O)[O-])cc1)c1ccc(OC2CCCC2)cc1` [Compound 4b], the inhibition at 100 µg/mL in assay [1] came to 15 ± 3%; in assay [2] it was 5 ± 5%.
